Source: patent publication US20210206817A1, “Metabolically Stable Apelin Analogs in the Treatment of Disease Mediated by the Apelin Receptor” (priority 2014, published 2021)
Read-outs that look alike come from different tables or passages of the source. Where a SMILES comes first, the peptide text is derived from it.

Legend:
rat apelin receptor-EGFP [1] = molecular target: T1, rat apelin receptor-EGFP (Rattus norvegicus, UniProt Q9JHG3); assay: Inhibition of forskolin-induced cAMP production (HTRF); assay type: cell-based
T1 construct: expressed in transfected cells
T1 sequence (Q9JHG3 1-377): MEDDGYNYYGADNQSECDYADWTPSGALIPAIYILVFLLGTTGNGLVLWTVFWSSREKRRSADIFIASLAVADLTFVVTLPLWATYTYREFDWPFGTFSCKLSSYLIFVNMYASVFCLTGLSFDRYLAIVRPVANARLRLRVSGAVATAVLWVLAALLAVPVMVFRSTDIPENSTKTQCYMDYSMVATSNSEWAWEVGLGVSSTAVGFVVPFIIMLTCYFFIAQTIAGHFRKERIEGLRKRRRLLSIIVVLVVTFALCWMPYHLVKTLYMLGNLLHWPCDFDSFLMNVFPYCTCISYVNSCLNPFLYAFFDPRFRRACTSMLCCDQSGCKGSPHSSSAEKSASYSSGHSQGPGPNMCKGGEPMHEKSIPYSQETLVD
Procedure: cAMP was quantified using the cAMP dynamic 2 assay kit (Cisbio Bioassays, Codolet, France) based on homogeneous time-resolved fluorescence (HTRF) technology. The stimulation was done in the stimulation buffer (HBSS, 5 mM Hepes, 0.1% BSA stabilizer, 1 mM IBMX, pH 7.4). Briefly, 2,000/well CHO cells stably expressing the rat apelin receptor-EGFP were added into 384-well plate and stimulated with 10^−6 M forskolin (FSK) and increasing concentrations (10^−14 to 10^−4 M) of apelins or its analogs for 30 min at room temperature. Cells were then lyzed, and cAMP levels were determined following manufacturer instructions.

rat apelin receptor-EGFP [2] = molecular target: T1, rat apelin receptor-EGFP; assay: [125I]pE13F radioligand binding on CHO membrane preparations
Procedure: Crude membrane preparation from CHO stably expressing the wild-type rat apelin receptor-EGFP, were prepared as previously described (39). […] The reaction was stopped by adding ice-cold binding buffer and filtered through glass microfiber filters (Whatman GF/C filters). Radioactivity was counted in Wizard 1470 Wallac gamma counter (Perkin Elmer, Turku, Finland).

in vitro = conditions: mouse, plasma
Procedure: For each compound, the stock solution (100 μM in water) was diluted in plasma to a final incubation concentration of 5 μM. The incubation at 37° C. was stopped respectively at to and 4 h by adding one volume of ice cold acetonitrile containing 0.1% trifluoroacetic acid. The sample was vortexed for 1 min and then centrifuged at 4° C. before LC-MS injection of the supernatant. Analyses were performed on a Kinetex RP-C18 column (2.6 μm, 100 Å, 50×4.6 mm) using a linear gradient (solvent B in solvent A, solvent A: water/0.05% TFA; solvent B: acetonitrile; flow rate of 2 mL·min^−1: detection at 358 nm). The percentage of remaining test compound relative to t0 was measured by monitoring the peak area of the chromatogram.

rat apelin receptor-EGFP [3] = molecular target: T1, rat apelin receptor-EGFP; assay: Apelin receptor-EGFP internalization, confocal microscopy; assay type: cell-based; conditions: 20 min; for induction of apelin receptor internalization: 1 μM
Procedure: The internalization assay was performed as described previously with CHO cells stably expressing the rat apelin receptor-EGFP (43). […] Cells were then mounted in Aquapolymount (Polysciences, Warrington, Pa., USA) for confocal microscopic analysis (Sec (42) for details).

rat apelin receptor-EGFP [4] = molecular target: T1, rat apelin receptor-EGFP; assay: ERK1/2 phosphorylation (Alphascreen); assay type: cell-based
Description: ERK1/2 phosphorylation was then monitored by Alphascreen technology.

[5] = tested on: rat aortic rings precontracted by noradrenaline (NA); assay: Isometric tension of aortic rings precontracted by noradrenaline; conditions: precontraction 3×10^−6 M NA
Procedure: The experiments were performed in rat aortic rings as previously described (39). […] The aortas were cleaned of excess connective tissue and fat and cut into rings of approximately 3-4 mm in length. Special care was taken to avoid damaging the luminal surface of the endothelium. […] One end of the aortic ring was connected to a tissue holder and the other to an isometric force transducer (EMKA Technologies, Paris, France). […] During equilibration period, the rings were washed every 30 min. Then, a first relaxation to acetylcholine (Ach, 10^−4 mol/L) was implemented to check the integrity or the absence of the endothelium in rings precontracted with NA (3×10^−8 mol/L). After rinsing with PSS to baseline tension, rings were equilibrated for 90 min. […] Each concentration of the drug was added at the maximal effect of the precedent concentration. The concentration-response curves were continuously recorded on a PC by means of IOX v 2.4 (EMKA Technologies, Paris) for further analysis (Datanalyst v2.1, EMKA Technologies, Paris).

[6] = Table 2, read-out: cAMP production IC50
[7] = [125I]pE13F binding I (nM), Table 2
[8] = 10^−6 M forskolin, read-out: IC50 inhibition of forskolin-induced cAMP production
[9] = competition with [125I]pE13F, CHO membranes, read-out: Ki for the apelin receptor (affinity)

Structure (SMILES)	IC50 (rat apelin receptor-EGFP [1]; [8]) [nM]	Ki (rat apelin receptor-EGFP [2]; [9]) [nM]	induction of apelin receptor internalization (rat apelin receptor-EGFP [3])	also measured
CCCCCCCCCCCCCCCC(=O)N[C@@H](CCCCN)C(=O)N[C@@H](Cc1ccccc1)C(=O)N[C@@H](CCCNC(=N)N)C(=O)N[C@@H](CCCNC(=N)N)C(=O)N[C@@H](CCC(N)=O)C(=O)N[C@@H](CCCNC(=N)N)C(=O)N1CCC[C@H]1C(=O)N[C@@H](CCCNC(=N)N)C(=O)N[C@@H](CC(C)C)C(=O)N[C@@H](CO)C(=O)N[C@@H](Cc1c[nH]cn1)C(=O)N[C@@H](CCCCN)C(=O)NCC(=O)N1CCC[C@H]1C(=O)N[C@@H](CCSC)C(=O)N1CCC[C@H]1C(=O)N[C@@H](Cc1ccccc1)C(=O)O [JFM V-0196A]	–	–	–	IC50 (rat apelin receptor-EGFP [1]; [6]): 3.9 ± 1.5 nM; Ki (rat apelin receptor-EGFP [2]; [7]): 0.76 ± 0.13 nM; starting peptide remaining after 4 h (in vitro; 4 h): 100% of star-ring peptide after 4 h
CSCC[C@H](NC(=O)[C@@H]1CCCN1C(=O)CNC(=O)[C@H](CCCCN)NC(=O)[C@H](Cc1c[nH]cn1)NC(=O)[C@H](CO)NC(=O)[C@H](CC(C)C)NC(=O)[C@H](CCCNC(=N)N)NC(=O)[C@@H]1CCCN1C(=O)[C@H](CCCNC(=N)N)NC(=O)[C@@H]1CCC(=O)N1)C(=O)N1CCC[C@H]1C(=O)N[C@@H](Cc1ccc(Br)cc1)C(=O)O [pE13(4Br-Phe^13)]	0.1 ± 0.05	0.06 ± 0.02	potent inducers of apelin receptor internalization	–
CSCC[C@H](NC(=O)[C@@H]1CCCN1C(=O)[C@@H](C)NC(=O)[C@H](CCCCN)NC(=O)[C@H](Cc1c[nH]cn1)NC(=O)[C@H](CO)NC(=O)[C@H](CC(C)C)NC(=O)[C@H](CCCNC(=N)N)NC(=O)[C@@H]1CCCN1C(=O)[C@H](CCCNC(=N)N)NC(=O)[C@@H]1CCC(=O)N1)C(=O)N1CCC[C@H]1C(=O)N[C@@H](Cc1ccccc1)C(=O)O [pE13F(D-Ala^9)] (HELM PEPTIDE1{[Glp].R.P.R.L.S.H.K.[dA].P.M.P.F}$$$$V2.0; C-terminus assumed)	43 ± 12	4.3 ± 1.8	potent inducers of apelin receptor internalization	–
CSCC[C@H](NC(=O)[C@@H]1CCCN1C(=O)CNC(=O)[C@H](CCCCN)NC(=O)C(C)(C)NC(=O)[C@H](CO)NC(=O)[C@H](CC(C)C)NC(=O)[C@H](CCCNC(=N)N)NC(=O)[C@@H]1CCCN1C(=O)[C@H](CCCNC(=N)N)NC(=O)[C@@H]1CCC(=O)N1)C(=O)N1CCC[C@H]1C(=O)N[C@@H](Cc1ccccc1)C(=O)O [pE13F(Aib^7)] (HELM PEPTIDE1{[Glp].R.P.R.L.S.[Aib].K.G.P.M.P.F}$$$$V2.0; C-terminus assumed)	1.2 ± 0.6	2.6 ± 2.3	potent inducers of apelin receptor internalization	–
CCCC[C@H](NC(=O)[C@@H]1CCCN1C(=O)[C@@H](C)NC(=O)[C@H](CCCCN)NC(=O)C(C)(C)NC(=O)[C@H](CO)NC(=O)[C@@H](CC(C)C)NC(=O)[C@H](CCCNC(=N)N)NC(=O)[C@@H]1CCCN1C(=O)[C@H](CCCNC(=N)N)NC(C)=O)C(=O)N1CCC[C@H]1C(=O)N[C@@H](Cc1ccc(Br)cc1)C(=O)O [P26, N-Acetyl-Arg-Pro-Arg-DLeu-Ser-Aib-Lys-DAla-Pro-Nle-Pro-(4-Br)Phe-OH] (HELM PEPTIDE1{[ac].R.P.R.[dL].S.[Aib].K.[dA].P.[Nle].P.[O=C(O)[C@H](Cc1ccc(Br)cc1)N[*:1]]}$$$$V2.0)	4.4 ± 0.9	–	–	IC50 (rat apelin receptor-EGFP [1]; [6]): 2.22 ± 1 nM; Ki (rat apelin receptor-EGFP [2]; [7]): 2.11 ± 0.4 nM; ERK1/2 EC50 times higher than K17F (rat apelin receptor-EGFP [4]): 18 times; EC50 (rat apelin receptor-EGFP [4]; 10 min, read-out: EC50 ERK1/2 phosphorylation): 71.3 ± 19.1 nM; EC50 (rat apelin receptor-EGFP [4]; Table 7, read-out: ERK1/2 phosphorylation EC50): 72.1 ± 19.6 nM; maximal relaxant effect [5]: 93±3%; potency (pD2) of relaxation [5]: 6.27±0.42; EC50 (rat apelin receptor-EGFP [3]; read-out: EC50 apelin receptor internalization): 2.11 ± 1.14 nM; half-life at 5 μM (in vitro): 1.43 h
CSCC[C@H](NC(=O)[C@@H]1CCCN1C(=O)CNC(=O)[C@H](CCCCN)NC(=O)[C@H](Cc1c[nH]cn1)NC(=O)[C@H](CO)NC(=O)[C@H](CC(C)C)NC(=O)[C@H](CCCNC(=N)N)NC(=O)[C@@H]1CCCN1C(=O)[C@H](CCCNC(=N)N)NC(=O)[C@@H]1CCC(=O)N1)C(=O)N1CCC[C@H]1C(=O)N[C@@H](Cc1ccccc1)C(=O)O [pE13F, reference compound]	–	–	–	maximal relaxant effect [5]: 62±6%; potency (pD2) of relaxation [5]: 8.00±0.59
CSCC[C@H](NC(=O)[C@@H]1CCCN1C(=O)CNC(=O)[C@H](CCCCN)NC(=O)[C@H](Cc1c[nH]cn1)NC(=O)[C@H](CO)NC(=O)[C@H](CC(C)C)NC(=O)[C@H](CCCNC(=N)N)NC(=O)[C@@H]1CCCN1C(=O)[C@H](CCCNC(=N)N)NC(C)=O)C(=O)N1CCC[C@H]1C(=O)N[C@@H](Cc1ccccc1)C(=O)O [Ac—R12F]	2.4 ± 1.4	1.4 ± 0.7	potent inducers of apelin receptor internalization	–
CCCC[C@H](NC(=O)[C@@H]1CCCN1C(=O)CNC(=O)[C@H](CCCCN)NC(=O)[C@H](Cc1c[nH]cn1)NC(=O)[C@H](CO)NC(=O)[C@H](CC(C)C)NC(=O)[C@H](CCCNC(=N)N)NC(=O)[C@@H]1CCCN1C(=O)[C@H](CCCNC(=N)N)NC(=O)[C@@H]1CCC(=O)N1)C(=O)N1CCC[C@H]1C(=O)N[C@@H](Cc1ccccc1)C(=O)O [pE13F(Nle^11)]	–	–	potent inducers of apelin receptor internalization	–
